# Assay: Human HepG2 cell viability assay in 384 well format
# Assay type: toxicity, cell-based
# Set-up: dose 125 nL, time 70.5 hour; concentration not given beside the values
# Settings: HepG2 cells, read-out: Inhibition
row,Compound,cytotoxicity at 70.5 h [%]
1,O=C(c1cc(F)cc(F)c1)N1CCC2(CC1)CC2,-9.31
2,CN(C)S(=O)(=O)N1CC[C@]2(O)CCN(Cc3cccc(F)c3)C[C@@H]2C1,-6.74
3,CC(C)c1noc(CCNC(=O)NCC2COc3ccccc3O2)n1 (configuration not stated),-11.6
4,Clc1ccc(OCCNCCn2cccn2)cc1,22.1
5,CN(C)S(=O)(=O)N1CCCC(c2nccn2Cc2cccnc2)C1 (configuration not stated),-4.26
6,Cc1cc(CCC(=O)N2CCCC2)nc(C2CCCN2)n1 (configuration not stated),-1.61
7,O=C(Nc1ccc(F)cc1)N1C[C@H]2C[C@H](C(=O)N3CCOCC3)[C@@H](C1)O2,-1.46
8,C[C@@H]1CN(Cc2ccsc2)C[C@]12CCN(Cc1cccnc1)C2=O,39
9,CC(C)c1noc(CCC(=O)N2CCSCC2)n1,-18.8
10,c1ccc2c(c1)CN(c1ncnc3c1CCNC3)CCO2,-5.38
11,c1ccc(CCN2CCOC(CNc3cccnn3)C2)nc1 (configuration not stated),-12.5
12,Cc1noc([C@@H]2CCO[C@@H]3CCN(Cc4nccs4)C[C@@H]32)n1,9.78
13,CN(C)S(=O)(=O)N1C[C@H]2C[C@H](C(=O)Nc3cccnc3)[C@@H](C1)O2,-8.64
14,COc1cc(C(=O)NCCc2ccccc2OC)on1,-1.09
15,CN(C)C(=O)C1CSCN1C(=O)CCc1ccco1 (configuration not stated),-8.81
16,O=C(NCCNc1cnccn1)N1CC=C(c2ccccc2)CC1,-8.49
17,CCCS(=O)(=O)N1Cc2c(ncn2Cc2ccccc2)C[C@H]1C(=O)OC,-5.74
18,CN(C)C(=O)CN1CCC2(CCCN(Cc3cccn3C)C2)C1=O (configuration not stated),25.7
19,CN1C(=O)CC2(CCN(Cc3cnn(C)c3)CC2)c2ccccc21,-2.77

row,Compound,cytotoxicity at 70.5 h [%]
1,CC(C)COCC1CN(Cc2ccc3c(c2)OCO3)Cc2ncn(C)c21 (configuration not stated),45.7
2,CC(=O)N1CCC(C(=O)N(CC(F)F)c2cccc(Cl)c2)CC1,0.334
3,CNC(=O)c1ccc2c(OC)n(C)nc2c1,-1.72
4,CC(C)N1CCC(Nc2ccn(CCC#N)n2)C1=O (configuration not stated),-2.6
5,Cc1occc1C(=O)N1C[C@@H]2CCCO[C@@H]2[C@H](N(C)Cc2ccco2)C1,-0.88
6,O=c1oc(-c2cccs2)nn1CC(O)c1ccc2c(c1)CCC2 (configuration not stated),14.5
7,COc1ncc(C2(O)CCN(Cc3cc(F)ccc3F)CC2)c(OC)n1,-5.13
8,COc1ccc(C(NCc2ccc(C#N)cc2)C2CC2)cc1 (configuration not stated),-7.6
9,CC(NC(=O)COc1cccc[n+]1[O-])C1CC1 (configuration not stated),-4.57
10,Cc1cc(CN2CCN(CC(O)c3ccc4c(c3)OCO4)CC2)no1 (configuration not stated),-10.8
11,CC(C)S(=O)(=O)Cc1cccc(NC(=O)c2ccc[nH]2)c1,-11
12,COc1c(CNC2CCc3cc(Cl)ccc32)c(C)nn1C (configuration not stated),-3.82
13,NC(=O)c1ccc(N2CCN(Cc3ccc(F)cc3Cl)CC2)nn1,-9.22
14,O=C(O)C1CCCN1c1nc(-c2ccc(Cl)cc2)cc(C(F)(F)F)n1 (configuration not stated),-3.11
15,c1ccc(N2CCCC3(CCN(Cc4ccsc4)C3)C2)nc1 (configuration not stated),-7.47
16,O=C(CS(=O)(=O)Cc1ccc(F)cc1)NCc1ccccc1F,-8.79
17,Cc1oc(NC(=O)C(C)N2CCN(CCO)CC2)c(C#N)c1C (configuration not stated),-2.61
18,COC(C)(C)C(=O)NCC1CCN(Cc2cc3ccccc3[nH]2)C1 (configuration not stated),-17.4
19,Cc1nc(O)cc(CN2CCC=C(CN(C)C(=O)c3ccco3)C2)n1,-14.2

row,Compound,cytotoxicity at 70.5 h [%]
1,CC(C#N)NS(=O)(=O)c1cccc(C(C)C)c1 (configuration not stated),-15.4
2,O=C(NCc1ccccc1CN1CCCC1=O)Nc1nccs1,-9.69
3,FC(F)(F)Cn1ccnc1CN1CCCC1c1noc(C2CC2)n1 (configuration not stated),-0.904
4,O[C@@H]1C[C@@H](c2nc(-c3ccccc3)no2)N(Cc2ccncc2)C1,-1.52
5,Cc1nc(C2CCCN2C(=O)c2ccccc2)ncc1C(N)=O (configuration not stated),-7.95
6,Cc1cccc(N2CCOCC3(C2)CN(c2cnn(C)c2)C(=O)CO3)n1 (configuration not stated),16.9
7,O=C(Nc1ccn(Cc2cccc3cccnc23)n1)C1COCCO1 (configuration not stated),-8.35
8,CC(=O)N1Cc2ccccc2CC1C(=O)Nc1cc(C)ccn1 (configuration not stated),-15.2
9,COc1ncccc1CNC(=O)NC(C)Cn1cccn1 (configuration not stated),-14.1
10,COc1ccc2c(c1)c(-c1nc(C)ncc1CN)cn2C,13.5
11,CC(O)c1cnn(-c2ccccc2)c1 (configuration not stated),45.1
12,Nc1nccc(-c2cccc3ccnn23)n1,-1.89
13,O=C(NCCCn1nc2ccccn2c1=O)Nc1ccccc1,16.7
14,O=S(=O)(Cc1ccccc1F)NCCN1CCOCC1,-2.45
15,CCc1n[nH]c(C(=O)NCCn2ccc(C)n2)c1C,17.6
16,O=C1N(c2ccsc2)CCC12CCCN(Cc1ccccn1)C2 (configuration not stated),-4.36
17,COCCc1noc(Cn2c(=O)[nH]c3ccccc32)n1,-10.2
18,O=C(NCCn1nc2ccccn2c1=O)c1sccc1-c1ccccc1,-5.5
19,CNC(=O)C(C)(C)N1CCC[C@H]1C(=O)NCCN1CCCC1,5.17

# — ChEMBL document CHEMBL3507680, “University of Dundee, Gates Library screen for HepG2 cell viability”
